For test [1], the system named is doxorubicin induced nephrosis. The test can be described thus: doxorubicin induced nephrosis in rats (oral treatment). In kind it is in vivo, rat. The note with it: 50 mg/kg b.i.d. oral. The protocol:
The compound 1,2-dihydro-3-(1-imidazolyl)-6-carboxy-naphthalene (internal code FCE 22178) was orally administered, for doxorubicin induced nephrosis, to rats at a dosage of 50 mg/kg b.i.d. for 7 days starting from the 21st day after doxorubicin injection. A reduction in both proteinuria (from 1018±102 to 751±49 mg/24 h p<0.005) and creatinine serum levels (from 1.85±0.26 to 0.97±0.009 mg/dl p<0.001) was observed.
Moreover, in the spontaneous focal glomerulonephritis of the MNS rats, FCE 22178 was administered at the dosage of 50 mg/kg p.o. die+100 mg/kg/die in drinking water starting from the first month of age and all along the life of the animal and in comparison with a not treated group.
Compound 1,2-dihydro-3-(1-imidazolyl)-6-carboxynaphthalene, internal code FCE 22178, for instance, in this model at the oral dosage of 50 mg/kg b.i.d. for 7 days starting from the 21st after doxorubicin injection lowered triglycerides serum levels from 783±152 to 481.8±84 mg/dl.

Test [2] concerns the target T1, glomerular TxA2 synthase (Rattus norvegicus, UniProt P49430).
T1 construct: from tissue; host or cells: isolated glomeruli of rat kidney (remnant kidney and sham operated rats)
T1 sequence (P49430 1-533): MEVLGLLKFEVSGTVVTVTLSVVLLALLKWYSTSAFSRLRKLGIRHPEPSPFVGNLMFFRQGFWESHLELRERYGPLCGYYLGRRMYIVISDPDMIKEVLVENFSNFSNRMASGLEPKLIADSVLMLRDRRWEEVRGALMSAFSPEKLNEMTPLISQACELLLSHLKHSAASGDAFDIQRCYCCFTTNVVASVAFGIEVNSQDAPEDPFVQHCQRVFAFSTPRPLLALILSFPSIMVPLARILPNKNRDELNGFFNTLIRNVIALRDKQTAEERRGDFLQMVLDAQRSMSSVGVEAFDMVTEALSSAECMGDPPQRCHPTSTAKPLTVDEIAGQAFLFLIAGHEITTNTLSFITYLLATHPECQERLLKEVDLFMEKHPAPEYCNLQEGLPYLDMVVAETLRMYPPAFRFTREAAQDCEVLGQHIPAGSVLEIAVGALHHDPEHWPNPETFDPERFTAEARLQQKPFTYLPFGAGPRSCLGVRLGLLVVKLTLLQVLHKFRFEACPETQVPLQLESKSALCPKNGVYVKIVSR
Description: in vitro TxA2 synthase inhibiting activity in isolated glomeruli (TxB2 by RIA). In kind it is biochemical. How it is done: (§1) Charles River C.D. male rats of 6 weeks of age were used for this experiment. […] Four weeks after the second operation the blood pressure was measured and the rats were placed in metabolic cages for evaluation of proteinuria, measured by the method of Lowry. Only the animals with a blood pressure ≥170 mm Hg and an urinary protein excretion ≥100 mg/day were used. Comparative experiments were performed using sham operated rats. Also the in vitro TxA2 synthase inhibiting activities in serum and in isolated glomeruli were studied and compared. Glomerula preparation was performed according to the method previously described and TxB2 was measured by RIA.

Test [3] relates to spontaneous focal glomerulonephritis of the MNS rats. The test can be described thus: spontaneous focal glomerulonephritis in Milan Normotensive Strain (MNS) rats. In kind it is in vivo, rat. How it is done: Moreover, in the spontaneous focal glomerulonephritis of the MNS rats, FCE 22178 was administered at the […] not treated group.
Sclerotic glomeruli show massive deposition of PAS-stained material.
Flattening and fusion of the foot processes, as well as formation of blebs and of electron dense lysosomes, together with the frequent detachment of the cell from the GMB is regarded to be related to the massive leakage of proteins through the glomerulus.

Test [4] addresses T2, serum TxA2 synthase (Rattus norvegicus, UniProt P49430).
T2 construct: from tissue; host or cells: rat blood / serum (remnant kidney and sham operated rats)
T2 sequence (P49430 1-533): T1 sequence (P49430 1-533)
Description: in vitro TxA2 synthase inhibiting activity in serum (TxB2 by RIA). In kind it is biochemical. The protocol:
as §1

[5] abbreviates: glomeruli of RRM (remnant kidney) rats, read-out: IC50, glomerular TxB2 production.
Where [6] appears, read: serum of RRM (remnant kidney) rats, read-out: IC50, serum TxB2 production / TxA2 synthesis.

Molecules are shown by their SMILES. pIC50: −log10 of the molar value. Read-outs that look alike come from different tables or passages of the source.

`O=C(O)c1ccc2c(c1)C=C(n1ccnc1)CC2` [FCE 22178, 1,2-dihydro-3-(1-imidazolyl)-6-carboxynaphthalene]: the creatinine serum levels in test [1] (7 days from 21st day after doxorubicin, from 1.85±0.26, p<0.001) stood at 0.97 ± 0.009 mg/dL. This compound came in with a triglycerides serum levels in test [1] (7 days from 21st day after doxorubicin, from 783±152) of 481.8 ± 84 mg/dL. The proteinuria in test [1] (7 days from 21st day after doxorubicin, from 1018±102, p<0.005) was determined as 751±49 mg/24 h; in test [3] (adult MNS rats, 50 mg/kg p.o. die + 100 mg/kg/die in drinking water, vs 428.8±42.3 in controls, p<0.01), 237±30.3 mg/24 h. For the same compound, the “urine TxB2 levels” value in test [1] (7 days, from 20.3±2.5 ng/24 h) is “under the detection limit of the method”. In addition, the “serum TxB2 levels” value in test [1] (7 days, from 536±55 ng/ml) is 92 ± 8.3 ng/mL. In addition, in test [2] (RRM rats, compared to OKYO46), the “selectivity for glomerular TxA2 synthase (vs serum)” value was “greater selectivity for glomerular TxA2 synthase”. The pIC50 is 10.49 in test [2] (setting [5]); 10.15 in test [2] (glomeruli of control sham operated rats, read-out: IC5 (so in the source), glomeruli); 8.77 in test [4] (setting [6]); 9.00 in test [4] (serum of control sham operated rats, read-out: IC5 (so in the source), serum). In addition, the “production of TxA2 (measured as TxB2 levels) in isolated glomeruli” value in test [3] (50 mg/kg p.o. die + 100 mg/kg/die in drinking water from first month of age, untreated 4.44±1.2 at 8 months, p<0.01) is 2.77±0.53 ng/mg prot. In test [3] (50 mg/kg p.o. die + 100 mg/kg/die in drinking water, pattern as in isolated glomeruli (greatly reduced)), the TxB2 in urine result is listed as “The same pattern was observed in urine”. Besides, in test [3] (14 months old rats treated for 2 months, from 223±36), the total cholesterol came out at 130.5 ± 12.2 mg/dL. In addition, the phospholipids in test [3] (14 months old rats treated for 2 months, from 338.6±56) was determined as 197.8 ± 21 mg/dL. Also, the triglycerides in test [3] (14 months old rats treated for 2 months, from 399.6±105) is 169.3 ± 26.1 mg/dL. In test [3] (adult MNS rats, 50 mg/kg p.o. die + 100 mg/kg/die in drinking water, printed: 1210±38 in controls vs treated, p<0.01), the “glomerular filtration rate (GFR)” value was 816±45 μl/min/g k.w. In test [3] (light microscopy, aged (14 months) MNS rats, control 27%, p<0.05), the “number of sclerotic glomeruli” value is on record as 22%. Further, the “entity of flattening and fusion of foot processes in non sclerotic glomeruli” value in test [3] (ultrastructural investigation, treated vs untreated MNS rats) is given as “definitly lower in treated animals”.
Take `Cl.O.O=C(O)/C=C/c1ccc(Cn2ccnc2)cc1` [OKYO46, (E)-3-[4-(1H-imidazol-1-ylmethyl)-phenyl]-2-propenoic acid monohydrochloride monohydrate, reference compound]: the “selectivity glomeruli vs serum” value in test [2] (control sham operated rats) was “losed his selectivity”. For the same compound, the pIC50 in test [2] (setting [5]) was 10.05; in test [2] (glomeruli of control sham operated rats, read-out: IC50, glomeruli), 9.00; in test [4] (setting [6]), 9.22; in test [4] (serum of control sham operated rats, read-out: IC50, serum) it was 4.30.

Source of the values: patent publication US4882347A, “"N-imidazolyl derivatives of bicyclic compounds and pharmaceutical compositions containing the same"” (Farmitalia Carlo Erba, S.r.l., priority 1987, dated 1989).
